“Also recorded” adds a separate entry of the source.

Usually IC50 stands for the midpoint of a concentration-inhibition curve.

For data set [1], the system named is A549 non-small cell lung cancer cells. As to the kind of experiment: MTS cell viability assay, alone and in combination with multi-kinase inhibitor. It is filed as cell-based. The settings on record: Homo sapiens. How it is done:
Cell Testing Assays with ETP Derivatives in Combination with DNMT Inhibitors and Multi-Kinase Inhibitors (See FIGS. 12A-12D, 13A-13C and 14A-14C): MTS assays were performed for cell viability for combination study with ETP69 plus DNMT inhibitors or mutikinase inhibitor. Human SKOV3 ovarian and A549 non-small cancer cells were seeded in 96-well plates (5000/well), incubated overnight at 37° C. in 5% CO2, and exposed to ETP69 plus azacitidine, decitabine or sorafenib for 48. Dimethyl sulfoxide (DMSO) was used as the vehicle control. Viable cell numbers were determined by tetrazolium conversion to its formazan dye and absorbance was measured at 490 nm using an automated ELISA plate reader. Each experiment was performed in quadruplicate.
IC50 Determinations for Ovarian, Liver, Pancreatic, CML, AML Cancer Cell Lines (See e.g. FIGS. 4, 6A-6C, 21, 22A, 22B, 23, 24A-24C, 25A, 25B and 34): MTS assays were performed for cell viability. […] Viable cell numbers were determined by tetrazolium conversion to its formazan dye and absorbance was measured at 490 nm using an automated ELISA plate reader. […]

Data set [2] relates to p21WAF1 cyclin-dependent kinase inhibitor 1. As to the kind of experiment: Western blot, induction of p21WAF1. Type of data set: cell-based, human. The following applies: A2058, DU145, A549 and SKOV3 cells. How it is done: (§1) Induction of p16, p53, p21waf1 and p27 (FIGS. 8 and 9): Western blot analyses were performed with specific antibodies. Briefly, human A2058 melanoma, DU145 prostate, A549 non-small lung and SKOV3 ovarian cancer cells were treated with ETP69. Whole-cell lysates (40 […]g) were resolved by SDS-PAGE. Primary specific antibodies to p53, p21^WAF1, p27(Kip1), p16 and Actin were diluted in PBS (pH 7.5) with 5% (w/v) nonfat milk and 0.1% (v/v) Tween-20 over night at 4° C. Horseradish peroxidase-conjugated secondary antibodies were incubated in PBS (pH 7.5) with 5% (w/v) nonfat milk and 0.1% (v/v) Tween-20 for 1 h at room temperature. Positive immuno-reactive proteins were detected using the ECL system (Pierce, Rockford, Ill.).
On the technique in general: Immunoblotting shows a protein as a band on a membrane.

The test system of a further data set is KCL-22 CML cells. Nature of the data set: MTS cell viability assay. Type of data set: cell-based. The following applies: Homo sapiens. The method, then:
(§2) IC50 Determinations for Ovarian, Liver, Pancreatic, CML, AML Cancer Cell Lines (See e.g. FIGS. 4, 6A-6C, 21, 22A, 22B, 23, 24A-24C, 25A, 25B and 34): MTS assays were performed for cell viability. SKOV3 ovarian cancer, Huh-7 hepatocellular carcinoma, MIA-PaCa2 pancreatic cancer, KCL-22 CML, T315I mutant KCL-22 CML, MOLM-13 AML and MV4-11 AML cells were seeded in 96-well plates (5000 cells/well for solid tumors, 10000 cells/well for blood tumors), incubated overnight at 37° C. in 5% CO2, and exposed to racemic ETP69 or S enantiomer in a dose-dependent manner for 48 h. Dimethyl sulfoxide (DMSO) was used as the vehicle control. Viable cell numbers were determined by tetrazolium conversion to its formazan dye and absorbance was measured at 490 nm using an automated ELISA plate reader. Each experiment was performed in quadruplicate.
For orientation: Tetrazolium assays rely on reduction of a dye to a coloured formazan, in cell work by metabolically active cells.

Data set [3] deals with Huh-7 hepatocellular carcinoma cells. As to the kind of experiment: MTS cell viability assay. The settings on record: Homo sapiens. It is filed as cell-based. How it is done:
as §2

Data set [4] concerns T315I mutant KCL-22 CML cells. As to the kind of experiment: MTS cell viability assay. It is filed as cell-based. The settings on record: Homo sapiens. The method, then: as §2
In another data set the test system is MV4-11 AML cells. Nature of the data set: MTS cell viability assay. Type of data set: cell-based. The following applies: Homo sapiens. How it is done:
as §2

In data set [5] the test system is Su.86.86 pancreatic cancer cell line. Nature of the data set: MTS assay. It is filed as cell-based. How it is done: MTS Assay: Panc1, BxPC3, or SU.86.86 cells were seeded in a 96-well plate at a density of 7500 cells/well prior to treatment with increasing amounts of ETP69 or DMSO vehicle control. Forty-eight hours post treatment cells were incubated with the MTS substrate (CellTiter 96 AQueous One Solution Cell Proliferation Assay, Promega, Madison, Wis.) according to the manufacturer's instructions. The absorbance was measured at 490 nm using a 96-well plate reader (Synergy 4, Biotek), and the data were normalized to the absorbance of DMSO-treated cells. IC50 values were determined using GraphPad Prism's non-linear regression function. See FIGS. 11, 21, 22A, 22B, 23, 24A, 24B, 24C, 25A and 25B.

Data set [6] relates to MDA-MB-468 triple negative breast cancer cells. Nature of the data set: Cell viability assay. Type of data set: cell-based.
Data set [7] deals with normal pancreatic epithelial cells. Nature of the data set: Viability of normal pancreatic epithelial cells. The following applies: 100 nM to 1000 nM.
The subject of a further data set is SKOV3 xenografts. It is filed as in vivo, mouse. The settings on record: SKOV3 xenograft, 2.5 mg/kg IP once daily for 18 days. The method, then:
Human SKOV3 cancer cells (4×10^6) were resuspended in serum-free McCoy's medium and Matrigel (ration of 1:1) and subcutaneously injected into the flank of 5-6 weeks old female NOD/SCID/IL-2rg(ko)(NSG). When palpable tumor sizes reached at approximately 50 mm^3, mice were divided into two groups (vehicle=9, treatment=9). Then, ETP69 was administered with IP injection at 2.5 mg/kg with vehicle (5% DMSO+15% Solutol+80% H2O), once daily for 18 days. Tumor volumes were calculated by the formula 1/2a×b^2, where a is the long diameter, and b is the short diameter. Tumor volumes correlate with tumor weights. The statistical significance of group differences was analyzed using a Student's t-test with the two-tailed distribution. P values less than 0.05 were considered statistically significant.

The subject of data set [8] is Cyclin-dependent kinase inhibitor 1B p27(Kip1). As to the kind of experiment: Western blot, induction of p27(Kip1). Type of data set: cell-based, human. The following applies: A2058, DU145, A549 and SKOV3 cells. How it is done: as §1
Another data set has as its target SUV39H1 (Homo sapiens, UniProt O43463). Nature of the data set: Histone methyltransferase (HMT) assay in vitro. It is filed as biochemical. How it is done: (§3) For histone methyltranferase (HMT), DNA methyltransferase (DNMT) and Histone acetyltransferase (HAT) assays in vitro, human recombinant HMT, DNMT and HAT proteins were mixed with substrates in the reaction buffer (50 mM Tris-HCl (pH 8.5), 5 mM MgCl2, 50 mM NaCl, 1 mM DTT, 1 mM PMSF, 1% DMSO), including histone H3, histone H4, nucleosomes, or core histone. Racemic ETP69, S enantiomer or DMSO as a vehicle control was preincubated in the mixture. Next, for HMTs and DNMT assays, […] of ^3H-SAM was added to the mixture for the reaction initiation and conversion of ^3H-SAM+histone L-lysine to SAH+histone N^6-[methyl-^3H]-L-lysine was monitored with miniatured radioligand-filter binding platform. For p300 HAT assays, the conversion of acetyl-^3H-acetyl coenzyme A to coenzyme A was monitored. The reactions were carried out at 30° C. IC50 values were determined using Excel and GraphPad Prism software.

The target of the next data set is G9a (Homo sapiens, UniProt Q96KQ7). As to the kind of experiment: Histone methyltransferase (HMT) assay in vitro. Type of data set: biochemical. How it is done:
as §3

Chain of SUV39H1 (O43463 whole entry): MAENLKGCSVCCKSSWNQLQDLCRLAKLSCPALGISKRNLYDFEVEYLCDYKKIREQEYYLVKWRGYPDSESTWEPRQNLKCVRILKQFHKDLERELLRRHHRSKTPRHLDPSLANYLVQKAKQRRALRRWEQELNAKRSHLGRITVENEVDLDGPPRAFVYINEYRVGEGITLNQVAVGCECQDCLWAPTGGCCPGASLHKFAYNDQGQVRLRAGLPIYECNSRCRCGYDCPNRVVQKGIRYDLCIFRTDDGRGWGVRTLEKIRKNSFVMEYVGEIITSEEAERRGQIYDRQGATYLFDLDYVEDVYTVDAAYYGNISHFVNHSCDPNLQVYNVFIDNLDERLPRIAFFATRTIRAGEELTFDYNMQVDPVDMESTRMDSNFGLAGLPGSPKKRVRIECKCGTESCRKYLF
Chain of G9a (Q96KQ7 whole entry): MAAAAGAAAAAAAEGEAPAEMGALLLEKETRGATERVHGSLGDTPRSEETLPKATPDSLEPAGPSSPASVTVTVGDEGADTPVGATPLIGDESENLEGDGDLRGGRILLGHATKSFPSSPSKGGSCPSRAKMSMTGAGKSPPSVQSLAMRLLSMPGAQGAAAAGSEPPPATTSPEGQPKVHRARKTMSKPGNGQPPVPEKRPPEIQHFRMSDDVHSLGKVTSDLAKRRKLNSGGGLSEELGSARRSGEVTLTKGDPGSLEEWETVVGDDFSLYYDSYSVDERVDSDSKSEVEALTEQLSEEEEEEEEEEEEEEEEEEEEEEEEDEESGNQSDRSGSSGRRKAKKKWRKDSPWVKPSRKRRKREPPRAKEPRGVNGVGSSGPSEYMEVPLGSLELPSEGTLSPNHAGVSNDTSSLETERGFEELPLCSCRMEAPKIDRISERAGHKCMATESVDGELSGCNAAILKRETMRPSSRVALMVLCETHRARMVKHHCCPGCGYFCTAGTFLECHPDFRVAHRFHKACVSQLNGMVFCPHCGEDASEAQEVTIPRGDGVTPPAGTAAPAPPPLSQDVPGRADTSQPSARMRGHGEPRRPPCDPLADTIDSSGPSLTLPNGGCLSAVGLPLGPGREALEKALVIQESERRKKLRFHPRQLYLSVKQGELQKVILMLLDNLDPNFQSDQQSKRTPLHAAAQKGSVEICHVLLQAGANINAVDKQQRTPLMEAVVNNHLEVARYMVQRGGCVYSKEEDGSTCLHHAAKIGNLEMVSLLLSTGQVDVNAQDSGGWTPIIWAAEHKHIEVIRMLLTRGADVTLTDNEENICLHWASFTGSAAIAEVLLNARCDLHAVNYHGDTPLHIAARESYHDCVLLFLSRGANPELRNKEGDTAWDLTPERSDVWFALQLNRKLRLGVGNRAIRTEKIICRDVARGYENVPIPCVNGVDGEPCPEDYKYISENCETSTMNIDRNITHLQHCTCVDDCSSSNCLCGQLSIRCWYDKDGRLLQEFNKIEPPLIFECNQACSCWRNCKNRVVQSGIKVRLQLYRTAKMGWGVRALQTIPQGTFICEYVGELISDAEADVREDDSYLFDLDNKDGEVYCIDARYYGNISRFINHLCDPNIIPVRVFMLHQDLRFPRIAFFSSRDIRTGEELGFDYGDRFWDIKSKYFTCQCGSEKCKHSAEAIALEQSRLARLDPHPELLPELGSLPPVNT

As for `CN1C(=O)[C@@]23C[C@](C)(C#N)[C@H](c4ccc5c(c4)OCO5)N2C(=O)[C@]1(C)SS3` (racemic) [ETP69, Rac-(3S,6S,7S,8aS)-6-(Benzo[d][1,3]dioxol-5-yl)-2,3,7-trimethyl-1,4-dioxohexahydro-6H-3,8a-epidithiopyrrolo[1,2-a]pyrazine-7-carbonitrile], the IC50 was 100 nM in data set [1]; 180 nM in the data set with KCL-22 CML cells; 3.3 nM in [3]; 170 nM in data set [4]; 1.8 nM in the data set with MV4-11 AML cells; 86 nM in data set [5] (Homo sapiens, SU.86.86, 48 h). In data set [2], the “induction of p21WAF1” value is “induces”. For the same molecule, the killing of cells result in data set [5] (SU86.86, 100 nM to 1000 nM) is recorded as “significant killing”. Besides, the viability inhibition entry in [6] was “viability inhibition”. In addition, in data set [7], the “destruction of normal pancreatic cells” value is recorded as “little destruction”. Besides, the toxicity symptoms entry in the data set with SKOV3 xenografts is recorded as “no observable toxicity symptoms”. Further, the tumor volume entry with SKOV3 xenografts is “decreased”. The tumor weight entry in the data set on SKOV3 xenografts is recorded as “decreased”. The “induction of p27(Kip1)” value in data set [8] is “induces”. Besides, on SUV39H1, the “inhibition of HMT SUV39H1” value is “selectively inhibits; also recorded: specific inhibition”. Moreover, the “inhibition of HMT G9a” value on G9a is on record as “selectively inhibits; also recorded: specific inhibition”.

The record behind these values is patent US9856273B2, “ETP derivatives” (priority 2012, dated 2018).
